# Legend:
# [1] = system: Monographella nivalis (Microdochium nivale); experiment: Monographella nivalis (Microdochium nivale) / liquid culture (foot rot cereals); assay type: cell-based; conditions: PDB, 24° C., inhibition of growth determined photometrically 4-5 days after application, read-out: disease control
# Description: (§1) 14 Monographella nivalis (Microdochium nivale)/liquid culture (foot rot cereals): Conidia of the fungus from cryogenic storage were directly mixed into nutrient broth (PDB potato dextrose broth). After placing a DMSO solution of test compound into a 96-well microtiter plate at an application rate of 200 ppm, the nutrient broth containing the fungal spores was added. The test plates were incubated at 24° C. and the inhibition of growth was determined photometrically 4-5 days after application.
# Gaeumannomyces Graminis = experiment: Gaeumannomyces graminis / liquid culture (take-all of cereals); assay type: cell-based; conditions: PDB, 24° C., inhibition of growth determined photometrically 4-5 days after application, read-out: disease control
# Description: 13 Gaeumannomyces Graminis/Liquid Culture (Take-all of Cereals): Mycelial fragments of the fungus from cryogenic storage were directly mixed into nutrient broth (PDB potato dextrose broth). […] The test plates were incubated at 24° C. and the inhibition of growth was determined photometrically 4-5 days after application.
# [2] = system: Mycosphaerella graminicola (Septoria tritici); experiment: Mycosphaerella graminicola (Septoria tritici) / liquid culture (Septoria blotch); assay type: cell-based; conditions: Zymoseptoria tritici, PDB, 24° C., inhibition of growth determined photometrically 4-5 days after application, read-out: disease control
# Description: as §1, with “12 Mycosphaerella graminicola (Septoria tritici)/Liquid Culture (Septoria Blotch):” for “14 Monographella nivalis (Microdochium nivale)/liquid culture (foot rot cereals):”
# Pythium ultimum = Pythium ultimum / liquid culture (seedling damping off); assay type: cell-based; conditions: Globisporangium ultimum, potato dextrose broth, 24° C., inhibition of growth determined photometrically 2-3 days after application, read-out: disease control
# Description: 8 Pythium ultimum/Liquid Culture (Seedling Damping Off) Mycelia fragments and oospores of a newly grown liquid culture of the fungus were directly mixed into nutrient broth (potato dextrose broth). After placing a DMSO solution of test compound into a 96-well format microtiter plate at an application rate of 200 ppm, the nutrient broth containing the fungal mycelia/spore mixture was added. The test plates were incubated at 24° C. and the inhibition of growth was determined photometrically 2-3 days after application.
# [3] = system: Glomerella lagenarium (Colletotrichum Lagenarium); experiment: Glomerella lagenarium (Colletotrichum lagenarium) / liquid culture (anthracnose); assay type: cell-based; conditions: Colletotrichum orbiculare, PDB, 24° C., inhibition of growth measured photometrically 3-4 days after application, read-out: disease control
# Description: as §1, with “10 Glomerella lagenarium (Colletotrichum Lagenarium)/Liquid Culture (Anthracnose):” for “14 Monographella nivalis (Microdochium nivale)/liquid culture (foot rot cereals):”, “measured” for “determined”, “3-4” for “4-5”
# [4] = system: Thanatephorus cucumeris (Rhizoctonia solani); experiment: Thanatephorus cucumeris (Rhizoctonia solani) / liquid culture (foot rot, damping-off); assay type: cell-based; conditions: PDB, 24° C., inhibition of growth determined photometrically 3-4 days after application, read-out: disease control
# Description: 16 Thanatephorus cucumeris (Rhizoctonia solani)/liquid culture (foot rot, damping-off): Mycelia fragments of a newly grown liquid culture of the fungus were directly mixed into nutrient broth (PDB potato dextrose broth). After placing a DMSO solution of the test compounds into a 96-well microtiter plate at an application rate of 200 ppm, the nutrient broth containing the fungal material was added. The test plates were incubated at 24° C. and the inhibition of growth was determined photometrically 3-4 days after application.
# Fusarium culmorum = experiment: microbe, parasite or virus in culture; assay type: cell-based; conditions: read-out: disease control
# [5] = system: Botryotinia fuckeliana (Botrytis cinerea); experiment: Botryotinia fuckeliana (Botrytis cinerea) / liquid culture (gray mould); assay type: cell-based; conditions: Vogels broth, 24° C., inhibition of growth determined photometrically 3-4 days after application, read-out: disease control
# Description: as §1, with “9 Botryotinia fuckeliana (Botrytis cinerea)/liquid” for “14 Monographella nivalis (Microdochium nivale)/liquid”, “(Gray mould):” for “(foot rot cereals):”, “(Vogels” for “(PDB potato dextrose”, “3-4” for “4-5”
# [6] = system: Mycosphaerella arachidis (Cercospora arachidicola); experiment: Mycosphaerella arachidis (Cercospora arachidicola) / liquid culture (early leaf spot); assay type: cell-based; conditions: PDB, 24° C., inhibition of growth determined photometrically 4-5 days after application, read-out: disease control
# Description: as §1, with “11 Mycosphaerella arachidis (Cercospora arachidicola)/Liquid Culture (Early Leaf Spot):” for “14 Monographella nivalis (Microdochium nivale)/liquid culture (foot rot cereals):”
# Sclerotinia sclerotiorum = Sclerotinia sclerotiorum / liquid culture (cottony rot); assay type: cell-based; conditions: PDB, 24° C., inhibition of growth determined visually 3-4 days after application, read-out: disease control
# Description: 17 Sclerotinia sclerotiorum/liquid culture (cottony rot): Mycelia fragments of a newly grown liquid culture of the fungus were directly mixed into nutrient broth (PDB potato dextrose broth). After placing a (DMSO) solution of the test compounds into a microtiter plate (96-well format) the nutrient broth containing the fungal material was added. The test plates were incubated at 24° C. and the inhibition of growth was determined visually 3-4 days after application.
# Plasmopara viticola = experiment: whole plant or invertebrate; assay type: in vivo; conditions: foliar, read-out: disease control
SMILES,inhibition of growth at 200 ppm [1] [%],inhibition of growth at 200 ppm (Gaeumannomyces Graminis) [%],inhibition of growth at 200 ppm [2] [%],inhibition of growth at 200 ppm (Pythium ultimum) [%],inhibition of growth at 200 ppm [3] [%],inhibition of growth at 200 ppm [4] [%],melting point [°C],inhibition of growth at 200 ppm (Fusarium culmorum) [%],inhibition of growth at 200 ppm [5] [%],inhibition of growth at 200 ppm [6] [%],inhibition of growth at 200 ppm (Sclerotinia sclerotiorum) [%],pest or weed control at 200 ppm (Plasmopara viticola) [%]
Cc1cc(C2CC2)nc(Nc2cccc(-c3cc4c(cc3Cl)COB4O)c2)n1 [Compound 23],≥ 80,,,,,,,,,,,
OB1OCc2cc(Cl)c(-c3cccc4ncoc34)cc21 [Compound 16],≥ 80,≥ 80,≥ 80,≥ 80,≥ 80,,,,,,,
"COc1ccc(-c2cc3c(cc2Cl)COB3O)cc1 [Compound 8, 5-chloro-1-hydroxy-6-(4-methoxyphenyl)-3H-2,1-benzoxaborole]",≥ 80,≥ 80,≥ 80,≥ 80,≥ 80,≥ 80,105 to 115,,,,,
OB1OCc2cc(Cl)c(-c3cc(-n4cccn4)ccc3Br)cc21 [Compound 18],≥ 80,≥ 80,≥ 80,≥ 80,≥ 80,,,,,,,
COc1ccc(-c2cc3c(cc2F)COB3O)cc1 [Compound 26],≥ 80,,≥ 80,≥ 80,≥ 80,,,≥ 80,,,,
Cc1ccc(-c2cc3c(cc2Cl)COB3O)cc1C [Compound 2],,≥ 80,≥ 80,≥ 80,≥ 80,,155 to 165,,,,,
"CC(=O)Nc1ccc(F)cc1-c1cc2c(cc1Cl)COB2O [Compound 19, N-[2-(5-chloro-1-hydroxy-3H-2,1-benzoxaborol-6-yl)-4-fluoro-phenyl]acetamide]",,,≥ 80,≥ 80,,,,≥ 80,,,,
Cc1cc(C2CC2)nc(Nc2ccccc2-c2cc3c(cc2Cl)COB3O)n1 [Compound 22],≥ 80,,,,,,,,≥ 80,,,
COc1ccccc1-c1cc2c(cc1F)COB2O [Compound 25],≥ 80,,≥ 80,≥ 80,≥ 80,,50 to 65,≥ 80,,≥ 80,≥ 80,≥ 80
"Cc1nc2cccc(-c3cc4c(cc3Cl)COB4O)c2s1 [Compound 15, 7-(5-chloro-1-hydroxy-3H-2,1-benzoxaborol-6-yl)-2-methyl-1,3-benzothiazole]",≥ 80,,,≥ 80,,,,,,,,≥ 80
"Cc1nc2c(-c3cc4c(cc3Cl)COB4O)cccc2s1 [Compound 13, 4-(5-chloro-1-hydroxy-3H-2,1-benzoxaborol-6-yl)-2-methyl-1,3-benzothiazole]",≥ 80,≥ 80,≥ 80,≥ 80,≥ 80,,,,,,,
"Cc1nc2cc(-c3cc4c(cc3Cl)COB4O)ccc2s1 [Compound 14, 5-(5-chloro-1-hydroxy-3H-2,1-benzoxaborol-6-yl)-2-methyl-1,3-benzothiazole]",≥ 80,,,≥ 80,,,,,,,,≥ 80
COC(=O)c1cc(-c2cc3c(cc2Cl)COB3O)ccc1OC [Compound 30],≥ 80,,,≥ 80,,,,,,,,
OB1OCc2cc(Cl)c(-c3cc(Br)ccc3-n3cccn3)cc21 [Compound 17],≥ 80,≥ 80,≥ 80,≥ 80,≥ 80,,,,,,,
"CC(=O)Nc1ccc(F)c(-c2cc3c(cc2Cl)COB3O)c1 [Compound 20, N-[3-(5-chloro-1-hydroxy-3H-2,1-benzoxaborol-6-yl)-4-fluoro-phenyl]acetamide]",≥ 80,≥ 80,≥ 80,≥ 80,≥ 80,,,≥ 80,≥ 80,≥ 80,≥ 80,
OB1OCc2cc(F)c(-c3ccc(Cl)c(Cl)c3)cc21 [Compound 34],,,,,,,243 to 245,,,,,
N#Cc1ccc(-c2cc3c(cc2F)COB3O)cc1 [Compound 29],≥ 80,,,≥ 80,,,270 to 272,,,,,
OB1OCc2cc(Cl)c(-c3ccc(O)cc3)cc21 [Compound 11],≥ 80,,,≥ 80,,,,,,,,≥ 80
"COc1cccc(-c2cc3c(cc2F)COB3O)c1 [Compound 27, 5-fluoro-6-(3-methoxy-phenyl)-3H-benzo[c][1,2] oxaborol-1-ol]",≥ 80,,≥ 80,≥ 80,≥ 80,,118 to 120,≥ 80,,≥ 80,≥ 80,≥ 80
OB1OCc2cc(Cl)c(-c3cccc4[nH]c(-c5cscn5)nc34)cc21 [Compound 21],,,,≥ 80,,,,,≥ 80,≥ 80,,
Cc1cccc(-c2cc3c(cc2Cl)COB3O)c1 [Compound 5],,,≥ 80,≥ 80,≥ 80,≥ 80,,≥ 80,,,,
COc1ccc(OC)c(-c2cc3c(cc2Cl)COB3O)c1 [Compound 12],≥ 80,≥ 80,≥ 80,≥ 80,≥ 80,,95 to 115,,,,,≥ 80
Cc1ccc(-c2cc3c(cc2Cl)COB3O)cc1 [Compound 6],,,≥ 80,≥ 80,≥ 80,≥ 80,,≥ 80,,,,
Cc1ccccc1-c1cc2c(cc1Cl)COB2O [Compound 4],,,≥ 80,≥ 80,≥ 80,≥ 80,,,,,,≥ 80
Cc1cc(C2CC2)nc(Nc2ccc(-c3cc4c(cc3Cl)COB4O)cc2)n1 [Compound 24],≥ 80,,,,,,,,,,,

# — US20180000089A1, “NOVEL MICROBIOCIDES” (Syngenta Participations AG, priority 2015, published 2018)
